Reference: ChEMBL document CHEMBL1201862, “PubChem BioAssay data set” (2004)
Calls of active or inactive are those of the source.

Key:
Fatty acid synthase [1] = molecular target: T1, Fatty acid synthase (Homo sapiens, UniProt P49327); assay: inhibition of human FAS-TE enzyme activity – biochemical, kinetic fluorescence intensity, dose response (AID 624326); type: functional;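 also: rate of fluorescence rise from hydrolysis of a fluorogenic O-methyl fluorescein ester substrate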
Fatty acid synthase [2] = molecular target: T1, Fatty acid synthase; assay: inhibition of human FAS-TE enzyme activity – biochemical, endpoint fluorescence intensity, uHTS hits, dose response (AID 624327); type: functional;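 also: fluorescence from hydrolysis of an O-methyl fluorescein acyl ester substrate by the enzyme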
[3] = molecular target: T2, Sphingosine 1-phosphate receptor 4 (Homo sapiens, UniProt O95977); assay: Late stage fluorescence dose response cell-based screening assay for antagonists of the Sphingosine 1-Phosphate Receptor 4 (S1P4). [Related pubchem assays: 1524 (Confirmation screen (S1P4 antagonists).), 1510 (Primary screen (S1P4 antagonists).), 1853 (Summary AID (S1P4 antagonists).), 1692 (Dose response screen (S1P4 antagonists).)]; type: functional
T2 sequence (O95977 whole entry): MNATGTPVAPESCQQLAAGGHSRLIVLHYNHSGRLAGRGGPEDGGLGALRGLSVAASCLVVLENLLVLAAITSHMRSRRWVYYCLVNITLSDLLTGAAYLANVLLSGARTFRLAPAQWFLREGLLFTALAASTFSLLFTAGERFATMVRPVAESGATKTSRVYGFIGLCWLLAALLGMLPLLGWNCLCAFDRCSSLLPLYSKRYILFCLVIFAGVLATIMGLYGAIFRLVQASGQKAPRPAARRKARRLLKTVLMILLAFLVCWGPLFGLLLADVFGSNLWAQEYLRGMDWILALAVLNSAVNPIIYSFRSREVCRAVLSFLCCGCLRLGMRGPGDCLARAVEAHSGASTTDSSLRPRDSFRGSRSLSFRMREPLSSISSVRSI

[4] = molecular target: Beta-2 adrenergic receptor (Homo sapiens, UniProt P07550); assay: ADRB2 activation measured by internalization – cell-based, FAP fluorogen, flow cytometry, cherry pick 1, dose response (AID 588763); type: functional
Protein RecA = molecular target: T3, Protein RecA (Mycobacterium tuberculosis, UniProt P9WHJ3); assay: Fluorescence Cell-Free Homogeneous Dose Retest to Identify Inhibitors of RecA-Intein Splicing Activity. [Related pubchem assays (depositor defined):AID2097, AID2223, AID489010, AID492950]; type: functional
T3 sequence (P9WHJ3 whole entry): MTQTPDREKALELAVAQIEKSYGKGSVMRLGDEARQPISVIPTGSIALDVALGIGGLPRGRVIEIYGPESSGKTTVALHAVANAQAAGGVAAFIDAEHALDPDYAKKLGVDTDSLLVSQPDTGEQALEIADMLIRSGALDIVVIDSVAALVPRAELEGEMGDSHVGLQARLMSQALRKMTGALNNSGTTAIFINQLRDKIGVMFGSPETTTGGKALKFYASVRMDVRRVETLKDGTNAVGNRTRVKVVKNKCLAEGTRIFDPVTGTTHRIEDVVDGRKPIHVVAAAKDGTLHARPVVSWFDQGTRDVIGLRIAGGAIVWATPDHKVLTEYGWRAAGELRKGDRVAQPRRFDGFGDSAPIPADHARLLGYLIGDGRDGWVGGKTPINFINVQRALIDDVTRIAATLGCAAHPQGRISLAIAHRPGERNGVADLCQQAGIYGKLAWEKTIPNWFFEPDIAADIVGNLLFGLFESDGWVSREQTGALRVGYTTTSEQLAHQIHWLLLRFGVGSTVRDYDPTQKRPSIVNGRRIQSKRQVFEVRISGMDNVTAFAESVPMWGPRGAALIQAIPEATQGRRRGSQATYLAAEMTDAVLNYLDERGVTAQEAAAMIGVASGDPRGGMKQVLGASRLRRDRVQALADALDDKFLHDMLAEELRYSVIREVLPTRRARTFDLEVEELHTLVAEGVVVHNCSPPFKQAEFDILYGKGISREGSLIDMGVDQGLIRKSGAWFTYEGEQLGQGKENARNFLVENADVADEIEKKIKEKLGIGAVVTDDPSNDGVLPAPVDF

[5] = Luminescent dose response cell-based high throughput screening assay for inhibitors of the Janus kinase 2 mutant JAK2V617F. [Related pubchem assays: 1446 (Primary screen.), 1521 (Confirmation assay.), 1486 (Counter screen.)]; type: functional
[6] = molecular target: T4, Replicative DNA helicase DnaB (Mycobacterium tuberculosis, UniProt P9WMR3); assay: DnaB intein splicing inhibitors, dose response, biochemical, cell-free fluorescence (AID 449749); type: functional
T4 sequence (P9WMR3 whole entry): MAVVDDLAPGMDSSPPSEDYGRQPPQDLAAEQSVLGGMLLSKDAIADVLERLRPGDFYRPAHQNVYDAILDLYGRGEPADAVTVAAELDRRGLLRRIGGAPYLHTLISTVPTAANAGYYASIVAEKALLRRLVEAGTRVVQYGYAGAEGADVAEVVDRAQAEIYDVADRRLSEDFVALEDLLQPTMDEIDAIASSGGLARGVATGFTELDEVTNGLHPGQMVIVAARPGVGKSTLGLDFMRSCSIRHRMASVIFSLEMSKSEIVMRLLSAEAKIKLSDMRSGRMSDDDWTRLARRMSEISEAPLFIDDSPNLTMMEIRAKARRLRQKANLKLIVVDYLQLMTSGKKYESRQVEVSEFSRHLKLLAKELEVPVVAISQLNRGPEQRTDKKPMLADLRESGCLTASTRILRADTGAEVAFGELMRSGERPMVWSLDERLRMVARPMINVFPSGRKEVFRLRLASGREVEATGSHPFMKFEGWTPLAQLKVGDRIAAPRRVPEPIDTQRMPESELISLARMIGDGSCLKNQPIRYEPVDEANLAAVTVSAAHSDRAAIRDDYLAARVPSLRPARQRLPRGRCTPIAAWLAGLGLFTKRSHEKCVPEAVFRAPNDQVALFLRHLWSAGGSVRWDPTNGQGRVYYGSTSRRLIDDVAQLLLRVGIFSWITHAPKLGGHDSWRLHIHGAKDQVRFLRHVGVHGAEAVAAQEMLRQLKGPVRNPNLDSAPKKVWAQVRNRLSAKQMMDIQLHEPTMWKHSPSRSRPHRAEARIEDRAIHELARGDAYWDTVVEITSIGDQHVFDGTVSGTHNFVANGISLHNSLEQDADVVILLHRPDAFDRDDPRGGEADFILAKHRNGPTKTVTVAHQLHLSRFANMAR

[7] = molecular target: Sphingosine 1-phosphate receptor 1 (Homo sapiens, UniProt P21453); type: functional;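 also: Tango beta-arrestin reporter U2OS cells stimulated with S1P near its EC80; inhibitor potency meaning antagonism of receptor activation by the natural agonist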
Sequence of Sphingosine 1-phosphate receptor 1 (P21453 whole entry): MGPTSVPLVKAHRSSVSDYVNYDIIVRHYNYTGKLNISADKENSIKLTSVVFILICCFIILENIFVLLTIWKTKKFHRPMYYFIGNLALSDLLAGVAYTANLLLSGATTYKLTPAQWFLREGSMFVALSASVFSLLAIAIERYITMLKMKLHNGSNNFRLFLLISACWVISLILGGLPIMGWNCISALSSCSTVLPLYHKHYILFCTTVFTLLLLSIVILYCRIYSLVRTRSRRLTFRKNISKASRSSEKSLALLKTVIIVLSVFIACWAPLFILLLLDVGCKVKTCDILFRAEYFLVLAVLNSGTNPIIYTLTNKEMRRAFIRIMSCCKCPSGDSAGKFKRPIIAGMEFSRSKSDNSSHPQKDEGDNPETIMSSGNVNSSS

[8] = molecular target: T2, Sphingosine 1-phosphate receptor 4; assay: Fluorescence dose response cell-based high throughput screening assay for antagonists of the Sphingosine 1-Phosphate Receptor 4 (S1P4). [Related pubchem assays: 1524 (Confirmation in triplicates.), 1510 (Primary screen.)]; type: functional
[9] = molecular target: Heat shock protein HSP 90-alpha (Homo sapiens, UniProt P07900); type: functional, organism-based
[10] = molecular target: G-protein coupled receptor 55 (Homo sapiens, UniProt Q9Y2T6); assay: selective activators of receptor GPR55 – imaging, U2OS cells, beta-arrestin-GFP redistribution, primary screen (AID 1961); type: functional
[11] = molecular target: DNA (cytosine-5)-methyltransferase 1 (Homo sapiens, UniProt P26358); assay: inhibition of DNA methylation by DNMT1 – biochemical, fluorescent molecular beacon, confirmation (AID 602386); type: functional
Sequence of DNA (cytosine-5)-methyltransferase 1 (P26358 whole entry): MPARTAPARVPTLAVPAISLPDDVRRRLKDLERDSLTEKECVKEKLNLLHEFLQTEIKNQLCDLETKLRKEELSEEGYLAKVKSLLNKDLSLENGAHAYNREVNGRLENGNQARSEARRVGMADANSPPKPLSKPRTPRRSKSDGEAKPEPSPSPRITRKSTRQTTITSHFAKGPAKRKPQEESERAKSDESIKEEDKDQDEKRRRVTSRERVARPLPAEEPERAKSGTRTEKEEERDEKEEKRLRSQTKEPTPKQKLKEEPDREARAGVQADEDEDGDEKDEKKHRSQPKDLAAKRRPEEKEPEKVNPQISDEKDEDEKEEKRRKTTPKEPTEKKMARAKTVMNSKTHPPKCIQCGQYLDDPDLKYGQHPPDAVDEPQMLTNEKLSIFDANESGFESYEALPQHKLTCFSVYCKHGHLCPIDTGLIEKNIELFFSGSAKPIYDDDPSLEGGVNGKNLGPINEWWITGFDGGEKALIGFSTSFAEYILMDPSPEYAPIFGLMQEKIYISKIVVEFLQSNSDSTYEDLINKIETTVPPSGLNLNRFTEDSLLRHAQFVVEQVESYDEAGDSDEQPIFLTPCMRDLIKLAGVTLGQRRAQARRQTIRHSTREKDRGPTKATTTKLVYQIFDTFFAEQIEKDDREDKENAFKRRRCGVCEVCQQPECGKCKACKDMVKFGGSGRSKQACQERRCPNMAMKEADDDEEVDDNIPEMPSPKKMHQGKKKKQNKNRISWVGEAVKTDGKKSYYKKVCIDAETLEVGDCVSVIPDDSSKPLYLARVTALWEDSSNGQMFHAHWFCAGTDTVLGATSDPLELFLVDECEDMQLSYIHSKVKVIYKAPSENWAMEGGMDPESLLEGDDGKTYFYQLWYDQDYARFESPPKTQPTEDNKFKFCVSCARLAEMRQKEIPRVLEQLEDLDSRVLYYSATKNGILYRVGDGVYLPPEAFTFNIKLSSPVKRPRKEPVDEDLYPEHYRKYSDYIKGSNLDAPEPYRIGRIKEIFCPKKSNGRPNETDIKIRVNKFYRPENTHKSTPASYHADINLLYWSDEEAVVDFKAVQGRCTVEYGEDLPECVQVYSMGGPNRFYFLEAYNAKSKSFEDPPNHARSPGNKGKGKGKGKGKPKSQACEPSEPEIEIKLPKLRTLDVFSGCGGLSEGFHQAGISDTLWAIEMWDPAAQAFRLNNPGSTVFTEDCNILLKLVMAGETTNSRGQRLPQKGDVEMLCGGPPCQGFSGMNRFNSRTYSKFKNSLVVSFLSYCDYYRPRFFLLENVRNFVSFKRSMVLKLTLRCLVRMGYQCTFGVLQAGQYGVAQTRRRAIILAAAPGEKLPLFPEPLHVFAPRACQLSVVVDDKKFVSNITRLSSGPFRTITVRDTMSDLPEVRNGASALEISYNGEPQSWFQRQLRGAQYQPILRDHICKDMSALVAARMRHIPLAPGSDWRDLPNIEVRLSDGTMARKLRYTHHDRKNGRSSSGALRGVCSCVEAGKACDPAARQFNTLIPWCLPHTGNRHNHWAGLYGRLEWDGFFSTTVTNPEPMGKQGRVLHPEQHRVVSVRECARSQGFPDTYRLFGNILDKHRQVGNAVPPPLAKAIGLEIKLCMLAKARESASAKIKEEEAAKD

Hexokinase HKDC1 = molecular target: T5, Hexokinase HKDC1 (Homo sapiens, UniProt Q2TB90); assay: inhibition of HKDC1 glucose phosphorylation – biochemical, W721R variant, dose response (AID 504729); type: functional
T5 sequence (Q2TB90 whole entry): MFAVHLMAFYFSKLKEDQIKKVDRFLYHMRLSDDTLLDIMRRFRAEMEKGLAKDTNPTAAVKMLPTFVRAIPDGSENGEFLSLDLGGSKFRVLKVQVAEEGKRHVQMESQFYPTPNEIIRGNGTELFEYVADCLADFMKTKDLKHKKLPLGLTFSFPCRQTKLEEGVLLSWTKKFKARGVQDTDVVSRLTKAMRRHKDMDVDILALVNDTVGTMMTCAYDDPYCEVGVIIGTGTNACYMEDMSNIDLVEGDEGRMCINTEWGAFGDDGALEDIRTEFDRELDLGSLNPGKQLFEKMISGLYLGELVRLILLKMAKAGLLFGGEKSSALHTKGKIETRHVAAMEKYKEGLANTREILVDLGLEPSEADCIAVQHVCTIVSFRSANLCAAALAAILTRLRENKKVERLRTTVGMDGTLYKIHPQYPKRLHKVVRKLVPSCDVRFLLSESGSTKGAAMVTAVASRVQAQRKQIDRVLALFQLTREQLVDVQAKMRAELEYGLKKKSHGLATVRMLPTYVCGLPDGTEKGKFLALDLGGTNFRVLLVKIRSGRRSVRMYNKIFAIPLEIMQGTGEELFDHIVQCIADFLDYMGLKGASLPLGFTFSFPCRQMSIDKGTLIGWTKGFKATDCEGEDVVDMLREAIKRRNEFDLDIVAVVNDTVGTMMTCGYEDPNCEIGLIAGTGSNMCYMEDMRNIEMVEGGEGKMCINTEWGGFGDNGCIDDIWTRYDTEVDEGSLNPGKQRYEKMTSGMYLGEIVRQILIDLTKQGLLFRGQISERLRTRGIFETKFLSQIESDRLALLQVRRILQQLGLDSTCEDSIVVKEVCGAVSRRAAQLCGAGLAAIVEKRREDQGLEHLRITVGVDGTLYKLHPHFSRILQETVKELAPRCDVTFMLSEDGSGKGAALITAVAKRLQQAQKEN

Vero = assay: viability of Vero cells under compound – cytotoxicity control for flavivirus capping enzyme inhibitors (AID 588742); type: functional; conditions: Chlorocebus sabaeus
[12] = HEK-293T viability loss after treatment – luminescence, T-cell screen hits, cytotoxicity control for TCR NF-kB inhibitor project, dose response (AID 489026); type: functional, cell-based;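 also: cells exposed to compound about 14 hours before the viability readout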
[13] = NIH-3T3 fibroblast cytotoxicity, dose response, cytotoxicity control, cell-based, fluorescence, Alamar Blue, secondary assay (AID 2327); type: functional;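 also: NIH-3T3 mouse fibroblasts cultured with fluconazole at 8 µg/mL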
[14] = molecular target: Serine/threonine-protein phosphatase (Candida dubliniensis (strain CD36 / CBS 7987 / NCPF 3949 / NRRLY-17841) (Yeast), UniProt B9W6M3); assay: blockers of CaCl2-induced CDRE-lacZ signaling – S. cerevisiae, luminescence, secondary, dose response (AID 2388); type: functional, cell-based;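 also: yeast reporter cells carrying a calcineurin-responsive lacZ construct stimulated with calcium chloride; luminescent beta-galactosidase reporter signal in whole cells rather than isolated phosphatase activity; potency for inhibition where a drop in reporter signal means calcineurin blockade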
cells [15] = type: functional, cell-based
cells [16] = type: functional, cell-based; remark: listed apart in the source
[17] = Luminescence-based dose response cell-based high throughput screening assay for cytotoxic compounds using the IEC-6 intestinal epithelial cell line. [Related pubchem assays: 1858 (Summary AID.), 1825 (Counterscreen.), 1907 (Confirmation screen.)]; type: functional
[18] = reduction of Shn3 3'UTR-driven luciferase in osteoblasts – cell-based, Clone20 osteoblasts, firefly luciferase, cherry-picked, dose response (AID 624132); type: functional;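 also: firefly luciferase luminescence from reporter carrying the Shn3 3'UTR in osteoblasts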
HEK293 [19] = assay: HEK293T cell viability loss, resazurin readout – resazurin fluorescence, cytotoxicity control for NF-kB activator project, SAR follow-up (AID 493251); type: functional, cell-based; conditions: Homo sapiens
INS1 = assay: INS-1E survival protection against cytokine death – cell-based, luminescence, retest, dose response (AID 449756); type: functional; conditions: Rattus norvegicus;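 also: cell death triggered by IL-1 beta plus TNF-alpha plus IFN-gamma mixture; protective hits raise ATP signal compared with cytokine alone wells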
[20] = DRD fibroblast viability loss – cell-based, non-viral oncogenic, luminescence, dose response (AID 1934); type: functional; conditions: Homo sapiens
BJ [21] = assay: cells; type: functional, cell-based; conditions: Homo sapiens
BJ [22] = assay: BJ-TERT-LT-ST fibroblast viability loss – cell-based, RAS-independent, luminescence, dose response (AID 1935); type: functional; conditions: Homo sapiens;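 also: BJ fibroblasts immortalized with TERT plus LT and ST oncogenes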
HEK293 [23] = assay: EBV LMP1 TES2 canonical NF-kB signalling blockers – cell-based, HEK293, luciferase, cherry-pick, dose response (AID 588343); type: functional; conditions: Homo sapiens
[24] = fluconazole-exposed Candida albicans growth modulators – fluorescence, retest, confirmation (AID 2467); type: functional, cell-based
Jurkat = assay: SAR Analysis of small molecule inhibitors of T-cell specific antigen receptor-induced NF-kB activation in a Jurkat cell line using a luminescence assay - Set 2. [Related pubchem assays (depositor defined):AID435003, AID435012, AID465]; type: functional, cell-based; conditions: Homo sapiens
BJ [25] = assay: BJ-TERT fibroblast viability loss – cell-based, RAS-independent, luminescence, dose response (AID 1933); type: functional; conditions: Homo sapiens
[26] = molecular target: ATP-dependent molecular chaperone HSP82 (Candida albicans (strain WO-1) (Yeast), UniProt C4YTQ8); assay: steroid-induced GRE reporter decrease in yeast – S. cerevisiae, luminescence, Hsp90 inhibitor project, dose response (AID 2400); type: functional, cell-based;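 also: beta-galactosidase luminescence from glucocorticoid response element reporter as proxy for Hsp90 function; inhibitor potency where signal loss means Hsp90 inhibition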
[27] = non-specific 3'UTR reporter inhibition in Clone20-Shn3RL – cell-based, Renilla luciferase, cherry-picked, counter-screen for Shn3 inhibitor project, dose response (AID 624133); type: functional
[28] = loss of viability in HepG2 cells – cell-based, CellTiter-Glo, cherry-picked, cytotoxicity control for Shn3 inhibitor project, dose response (AID 624134); type: functional
HEK293 [29] = assay: SAR Analysis of small molecule inhibitors of T-cell specific antigen receptor-induced NF-kB activation in a HEK-293T cell line using a luminescence assay - Set 2. [Related pubchem assays (depositor defined):AID435003, AID435012, AID489026]; type: functional, cell-based; conditions: Homo sapiens

T1 sequence (P49327 whole entry): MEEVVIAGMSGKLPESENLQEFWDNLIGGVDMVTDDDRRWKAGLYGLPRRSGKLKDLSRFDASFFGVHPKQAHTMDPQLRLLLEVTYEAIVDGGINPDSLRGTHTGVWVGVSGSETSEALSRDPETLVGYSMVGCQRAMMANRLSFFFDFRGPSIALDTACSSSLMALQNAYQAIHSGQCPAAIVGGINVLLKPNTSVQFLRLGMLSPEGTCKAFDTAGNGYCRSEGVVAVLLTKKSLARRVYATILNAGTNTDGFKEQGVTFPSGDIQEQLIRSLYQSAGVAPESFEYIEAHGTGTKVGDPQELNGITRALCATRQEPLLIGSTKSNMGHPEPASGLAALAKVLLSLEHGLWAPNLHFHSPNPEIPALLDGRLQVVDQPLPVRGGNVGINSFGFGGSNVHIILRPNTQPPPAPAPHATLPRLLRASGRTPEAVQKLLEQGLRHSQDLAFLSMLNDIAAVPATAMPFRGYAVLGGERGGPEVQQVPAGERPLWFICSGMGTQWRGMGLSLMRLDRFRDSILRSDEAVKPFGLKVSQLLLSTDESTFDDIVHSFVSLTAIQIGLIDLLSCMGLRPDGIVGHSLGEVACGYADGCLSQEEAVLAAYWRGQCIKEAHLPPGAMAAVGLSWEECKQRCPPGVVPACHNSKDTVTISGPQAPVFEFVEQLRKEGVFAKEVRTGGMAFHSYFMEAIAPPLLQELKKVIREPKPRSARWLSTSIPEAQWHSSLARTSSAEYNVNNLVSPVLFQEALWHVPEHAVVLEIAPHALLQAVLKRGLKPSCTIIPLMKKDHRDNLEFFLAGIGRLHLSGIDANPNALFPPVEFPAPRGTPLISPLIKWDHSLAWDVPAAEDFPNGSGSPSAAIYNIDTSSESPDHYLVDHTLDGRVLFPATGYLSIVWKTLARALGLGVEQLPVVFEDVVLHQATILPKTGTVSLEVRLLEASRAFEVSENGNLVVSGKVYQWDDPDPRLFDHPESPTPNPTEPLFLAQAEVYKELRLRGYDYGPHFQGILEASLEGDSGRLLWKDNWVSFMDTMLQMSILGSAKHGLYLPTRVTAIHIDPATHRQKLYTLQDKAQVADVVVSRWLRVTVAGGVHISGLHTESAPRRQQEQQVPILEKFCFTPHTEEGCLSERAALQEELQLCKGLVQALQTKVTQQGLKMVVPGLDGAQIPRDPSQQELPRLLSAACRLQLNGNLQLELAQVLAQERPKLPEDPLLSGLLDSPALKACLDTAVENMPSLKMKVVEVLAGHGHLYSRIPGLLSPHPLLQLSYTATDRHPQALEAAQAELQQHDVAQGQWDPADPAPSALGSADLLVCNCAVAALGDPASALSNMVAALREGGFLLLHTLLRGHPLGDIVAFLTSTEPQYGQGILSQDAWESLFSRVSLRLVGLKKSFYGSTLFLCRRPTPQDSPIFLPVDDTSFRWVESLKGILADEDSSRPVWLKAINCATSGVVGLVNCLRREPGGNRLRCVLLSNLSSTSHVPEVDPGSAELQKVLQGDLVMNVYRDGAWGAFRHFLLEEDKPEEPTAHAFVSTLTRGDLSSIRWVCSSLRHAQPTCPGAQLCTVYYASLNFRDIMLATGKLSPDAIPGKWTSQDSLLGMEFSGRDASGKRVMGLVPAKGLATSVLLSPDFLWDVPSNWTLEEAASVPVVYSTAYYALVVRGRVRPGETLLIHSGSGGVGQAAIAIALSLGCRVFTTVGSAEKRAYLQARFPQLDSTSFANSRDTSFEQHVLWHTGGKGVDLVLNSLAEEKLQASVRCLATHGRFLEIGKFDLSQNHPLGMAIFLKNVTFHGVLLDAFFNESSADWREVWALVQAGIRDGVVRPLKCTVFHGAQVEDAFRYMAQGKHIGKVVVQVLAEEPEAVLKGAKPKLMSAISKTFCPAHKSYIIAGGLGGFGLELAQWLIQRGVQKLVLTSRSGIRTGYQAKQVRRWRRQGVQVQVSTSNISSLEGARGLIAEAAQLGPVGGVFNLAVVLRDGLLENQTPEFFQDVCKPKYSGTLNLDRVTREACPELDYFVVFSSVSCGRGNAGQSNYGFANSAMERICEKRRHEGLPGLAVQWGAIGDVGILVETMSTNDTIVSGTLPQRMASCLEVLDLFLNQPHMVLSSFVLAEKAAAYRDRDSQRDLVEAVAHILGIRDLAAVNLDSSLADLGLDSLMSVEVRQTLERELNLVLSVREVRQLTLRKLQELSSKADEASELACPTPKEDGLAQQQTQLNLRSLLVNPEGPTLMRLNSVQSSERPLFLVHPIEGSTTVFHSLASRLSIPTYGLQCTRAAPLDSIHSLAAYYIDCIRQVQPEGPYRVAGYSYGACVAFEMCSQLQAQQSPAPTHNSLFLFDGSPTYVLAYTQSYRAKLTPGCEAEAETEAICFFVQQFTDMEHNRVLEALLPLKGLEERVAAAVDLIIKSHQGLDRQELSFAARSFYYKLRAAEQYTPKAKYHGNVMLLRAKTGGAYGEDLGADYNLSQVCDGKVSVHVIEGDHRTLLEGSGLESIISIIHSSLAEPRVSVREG

In the case of CCCC(=O)N(C1CC(C)C(C#N)(C#N)C1(C#N)C#N)N(C)C (stereo not given), the IC50 (Fatty acid synthase [1]) was 8.51 µM (active), the IC50 (Fatty acid synthase [2]) was 8.18 µM (active) and the IC50 [3] was 9.68 µM (not active). The EC50 [4] was 35 µM (inactive), the EC50 (Protein RecA) was 1.34 µM (active) and the IC50 [5] was 0.562 µM (active). For the same compound, the AC50 [6] was 1.61 µM (active), the IC50 [7] was > 49.8 µM (not active) and the IC50 [8] was 2.42 µM (active).
For CCOC(=O)c1c(-n2c(C)cc(C=C3C(=O)NC(=S)NC3=O)c2C)sc2c1CCCC2, the AC50 [9] was 2.61 µM (active), the EC50 [10] was > 32 µM (inactive) and the IC50 [11] was 10 µM (active). For the same compound, the IC50 (Hexokinase HKDC1) was 23.1 µM (inactive) and the CC50 (Vero) was 11.9 µM (active).
For CCCC(=O)NC(c1ccccc1Cl)c1ccc2cccnc2c1O (stereo not given), the IC50 [12] was > 80 µM (inactive), the AC50 [9] was 4.09 µM (active) and the EC50 [13] was 14.6 µM (active). The EC50 [14] was > 180 µM (inactive), the EC50 (cells [15]) was > 350 µM (not active) and the EC50 (cells [16]) was 6.59 µM (active). For the same compound, the IC50 [17] was 1.44 µM (active), the AC50 [18] was 1.21 µM (active) and the IC50 (HEK293 [19]) was 9.95 µM (active). For the same compound, the AC50 (INS1) was 0.63 µM (active), the EC50 [20] was 1.86 µM (inconclusive) and the EC50 (BJ [21]) was 7.5 µM (active). For the same compound, the EC50 (BJ [22]) was 2.49 µM (active), the AC50 (HEK293 [23]) was 5.2 µM (active) and the EC50 [24] was 0.656 µM (active). For the same compound, the IC50 (Jurkat) was 4.29 µM (active), the EC50 (BJ [25]) was 1.12 µM (active) and the EC50 [26] was > 150 µM (inactive). For the same compound, the AC50 [27] was 1.27 µM (active), the AC50 [28] was 2.66 µM (active) and the IC50 (HEK293 [29]) was 7.04 µM (active).
